For assay [1], the system named is Rhizoctonia solani AG-1. The assay can be described thus: Fungicidal activity against rice sheath blight (RSB) disease, control value. As to conditions: for pest or weed control at 2 ppm / pest or weed control at 10 ppm / pest or weed control at 50 ppm / pest or weed control at 100 ppm: Rhizoctonia solani, AG1, in Oryza sativa, read-out: RSB control value (C.V.); for RSB control value (C.V.): rice sheath blight.

The subject of assay [2] is Phytophthora infestans. Kind of assay: whole plant or invertebrate. The class given is in vivo. Particulars: for pest or weed control at 2 ppm / pest or weed control at 10 ppm / pest or weed control at 50 ppm / pest or weed control at 100 ppm: Phytophthora infestans, in Solanum lycopersicum, read-out: TLB control value (C.V.); for TLB control value (C.V.): tomato late blight.

Assay [3] has as its system Pyricularia oryzae Carvara KA301. The assay can be described thus: whole plant or invertebrate. The format is in vivo. As to conditions: for pest or weed control at 2 ppm / pest or weed control at 10 ppm / pest or weed control at 50 ppm / pest or weed control at 100 ppm: Pyricularia oryzae, read-out: RCB control value (C.V.); for RCB control value (C.V.): rice blast.
For assay [4], the system named is Erysiphae graminis. The assay can be described thus: Fungicidal activity against barley powdery mildew (BPM) disease, control value. The class given is in vivo. As to conditions: for pest or weed control at 2 ppm / pest or weed control at 10 ppm / pest or weed control at 50 ppm / pest or weed control at 100 ppm: 168 h, read-out: BPM control value (C.V.).
The subject of assay [5] is Puccinia recondita. The assay can be described thus: Fungicidal activity against wheat leaf rust (WLR) disease, control value. The format is in vivo. As to conditions: for pest or weed control at 2 ppm / pest or weed control at 10 ppm / pest or weed control at 50 ppm / pest or weed control at 100 ppm: read-out: WLR control value (C.V.).
The subject of assay [6] is Botrytis cinerae. Kind of assay: Fungicidal activity against cucumber gray mold rot (CGM) disease, control value. Particulars: for pest or weed control at 100 ppm / CGM control value (C.V.): 100 ppm. The class given is in vivo.
Setting [7] is: Botrytis, read-out: CGM control value (C.V.).
[8] abbreviates: Hordeum vulgare, 2 ppm, barley powdery mildew.
Where [9] appears, read: Hordeum vulgare, 10 ppm, barley powdery mildew.
The mark [10] stands for this setting: Hordeum vulgare, 50 ppm, barley powdery mildew.
Setting [11] is: Hordeum vulgare, 100 ppm, barley powdery mildew.
Setting [12] is: Botrytis, cucumber gray mold rot, read-out: CGM control value (C.V.).

Like-named read-outs stand apart in the source and are kept apart here.

Consider `CCOc1cc(C=C(Br)Br)ccc1OCc1ccccc1/C(=N\OC)C(=O)NC` [Example 84, (E)-2-(2-((4-(2,2-dibromovinyl)-2-ethoxyphenoxy)methyl)phenyl)-2-methoxyimino-N-methylacetamide], for which the pest or weed control at 2 ppm in assay [1] was determined as 55%; in assay [2] it was 70%; in assay [3], 30%; in assay [4] (2 ppm), 90%; in assay [5] (Puccinia recondita, 2 ppm), 95%. Besides, the pest or weed control at 10 ppm came out at 98% in assay [1]; 90% in assay [2]; 90% in assay [3]; 100% in assay [4] (10 ppm); 100% in assay [5] (Puccinia recondita, 10 ppm). Also, the pest or weed control at 50 ppm is 100% in assay [1]; 98% in assay [2]; 100% in assay [3]; 100% in assay [4] (50 ppm); 100% in assay [5] (Puccinia recondita, 50 ppm). Also, the pest or weed control at 100 ppm in assay [1] was determined as 100%; in assay [2], 100%; in assay [3] it was 100%; in assay [4] (100 ppm), 100%; in assay [5] (Puccinia recondita, 100 ppm) it was 100%; in assay [6] (setting [7]), 70%.

`CNC(=O)/C(=N/OC)c1ccccc1COc1cccc(C=C(Cl)Cl)c1Cl` [Example 44, (E)-2-(2-((2-chloro-3-(2,2-dichlorovinyl)phenoxy)methyl)phenyl)-2-methoxyimino-N-methylacetamide]: the pest or weed control at 2 ppm worked out at 90% in assay [1]; 95% in assay [2]; 100% in assay [3]; 100% in assay [4] (setting [8]); 100% in assay [5] (2 ppm, wheat leaf rust). Further, the pest or weed control at 10 ppm in assay [1] was found to be 100%; in assay [2] it was 100%; in assay [3], 100%; in assay [4] (setting [9]), 100%; in assay [5] (10 ppm, wheat leaf rust) it was 100%. In addition, the pest or weed control at 50 ppm was 100% in assay [1]; 100% in assay [2]; 100% in assay [3]; 100% in assay [4] (setting [10]); 100% in assay [5] (50 ppm, wheat leaf rust). Also, the pest or weed control at 100 ppm was determined as 100% in assay [1]; 100% in assay [2]; 100% in assay [3]; 100% in assay [4] (setting [11]); 100% in assay [5] (100 ppm, wheat leaf rust); 10% in assay [6] (setting [12]).

Consider `CNC(=O)/C(=N/OC)c1ccccc1COc1ccc(C=C(Cl)Br)cc1` [Example 18, (2E)-2-(2-((4-(2-bromo-2-chlorovinyl)phenoxy)methyl)phenyl)-2-methoxyimino-N-methylacetamide], for which the pest or weed control at 2 ppm in assay [1] is 90%; in assay [2], 30%; in assay [3], 100%; in assay [4] (setting [8]), 95%; in assay [5] (2 ppm, wheat leaf rust), 100%. Besides, the pest or weed control at 10 ppm turned out to be 98% in assay [1]; 80% in assay [2]; 100% in assay [3]; 98% in assay [4] (setting [9]); 100% in assay [5] (10 ppm, wheat leaf rust). In addition, the pest or weed control at 50 ppm was 100% in assay [1]; 100% in assay [2]; 100% in assay [3]; 100% in assay [4] (setting [10]); 100% in assay [5] (50 ppm, wheat leaf rust). Moreover, the pest or weed control at 100 ppm in assay [1] is 100%; in assay [2] it was 100%; in assay [3], 100%; in assay [4] (setting [11]), 100%; in assay [5] (100 ppm, wheat leaf rust), 100%; in assay [6] (setting [12]) it was 45%.

As to `CNC(=O)/C(=N/OC)c1ccccc1COc1c(C)cccc1C=C(Br)Br` [Example 74, (E)-2-(2-((2-(2,2-dibromovinyl)-6-methylphenoxy)methyl)phenyl)-2-methoxyimino-N-methylacetamide], the pest or weed control at 2 ppm in assay [1] was determined as 67%; in assay [3], 10%; in assay [4] (2 ppm) it was 92%; in assay [5] (Puccinia recondita, 2 ppm), 90%. Also, the pest or weed control at 10 ppm turned out to be 80% in assay [1]; 80% in assay [2]; 90% in assay [3]; 100% in assay [4] (10 ppm); 99% in assay [5] (Puccinia recondita, 10 ppm). The pest or weed control at 50 ppm turned out to be 90% in assay [1]; 90% in assay [2]; 100% in assay [3]; 100% in assay [4] (50 ppm); 100% in assay [5] (Puccinia recondita, 50 ppm). For the same molecule, the pest or weed control at 100 ppm in assay [1] turned out to be 100%; in assay [2] it was 100%; in assay [3], 100%; in assay [4] (100 ppm), 100%; in assay [5] (Puccinia recondita, 100 ppm), 100%; in assay [6] (setting [7]) it was 35%.

With `CNC(=O)/C(=N/OC)c1ccccc1CON=C(C)c1ccc(C=C(F)F)cc1` [Example 30, (E)-2-[[[[[2-[4-(2,2-difluorovinyl)phenyl](1-methyl)methylidene]amino]oxy]methyl]phenyl]-2-methoxyimino-N-methylacetamide], the “RSB control value (C.V.)” value in assay [1] (100 ppm) is recorded as 45%. Further, the “TLB control value (C.V.)” value in assay [2] (2 ppm), in assay [2] (10 ppm), in assay [2] (50 ppm) and in assay [2] (100 ppm) was 100% each time. The “RCB control value (C.V.)” value in assay [3] (2 ppm), in assay [3] (10 ppm), in assay [3] (50 ppm) and in assay [3] (100 ppm) was 100% throughout. Further, the “BPM control value (C.V.)” value is on record as 60% in assay [4] (50 ppm, barley powdery mildew) and 98% in assay [4] (100 ppm, barley powdery mildew). The “WLR control value (C.V.)” value in assay [5] (2 ppm, wheat leaf rust) was 90%; in assay [5] (10 ppm, wheat leaf rust), 100%; in assay [5] (50 ppm, wheat leaf rust), 100%; in assay [5] (100 ppm, wheat leaf rust), 100%. Further, in assay [6] (cucumber gray mold rot), the “CGM control value (C.V.)” value amounted to 60%.

On to `CO/N=C(/C(=O)OC)c1ccccc1CON=C(C)c1cccc(C=C(Br)Br)c1` [Example 23, methyl-(E)-2-[[[[[2-[3-(2,2-dibromovinyl)phenyl](1-methyl)methylidene]amino]oxy]methyl]phenyl]-2-methoxyiminoacetate], for which the “RSB control value (C.V.)” value was 98% in assay [1] (2 ppm), 100% in assay [1] (10 ppm), 100% in assay [1] (50 ppm) and 100% in assay [1] (100 ppm). In addition, the “TLB control value (C.V.)” value worked out at 55% in assay [2] (50 ppm) and 93% in assay [2] (100 ppm). The “RCB control value (C.V.)” value in assay [3] (2 ppm) stood at 90%; in assay [3] (10 ppm), 97%; in assay [3] (50 ppm), 100%; in assay [3] (100 ppm) it was 100%. The “BPM control value (C.V.)” value is recorded as 20% in assay [4] (2 ppm, barley powdery mildew); 50% in assay [4] (10 ppm, barley powdery mildew); 80% in assay [4] (50 ppm, barley powdery mildew); 95% in assay [4] (100 ppm, barley powdery mildew). In assay [5] (100 ppm, wheat leaf rust), the “WLR control value (C.V.)” value came to 80%. In addition, the “CGM control value (C.V.)” value in assay [6] (cucumber gray mold rot) amounted to 34%.

Take `CNC(=O)/C(=N/OC)c1ccccc1COc1cccc(C=C(Br)Br)c1Cl` [Example 68, (E)-2-(2-((3-(2,2-dibromovinyl)-2-chlorophenoxy)methyl)phenyl)-2-methoxyimino-N-methylacetamide]: the pest or weed control at 2 ppm in assay [1] is 100%; in assay [2] it was 100%; in assay [3], 100%; in assay [4] (2 ppm), 100%; in assay [5] (Puccinia recondita, 2 ppm), 100%. Moreover, the pest or weed control at 10 ppm in assay [1] is 100%; in assay [2], 100%; in assay [3], 100%; in assay [4] (10 ppm) it was 100%; in assay [5] (Puccinia recondita, 10 ppm), 100%. In addition, the pest or weed control at 50 ppm amounted to 100% in assay [1]; 100% in assay [2]; 100% in assay [3]; 100% in assay [4] (50 ppm); 100% in assay [5] (Puccinia recondita, 50 ppm); 20% in assay [6] (Botrytis, 50 ppm, read-out: CGM control value (C.V.)). Further, the pest or weed control at 100 ppm was 100% in assay [1]; 100% in assay [2]; 100% in assay [3]; 100% in assay [4] (100 ppm); 100% in assay [5] (Puccinia recondita, 100 ppm); 70% in assay [6] (setting [7]).
